Measurements from ChEMBL document CHEMBL3046254, “Antifeedant Activity Evaluation of Withanolides from Jaborosa integrifolia” (2000).

Legend:
[1] = test system: Spodoptera littoralis; test: Antifeedant activity against Spodoptera littoralis assessed as inhibition of diet consumption at 20 ug/cm2 by leaf disk choice assay relative to control; assay type: functional; conditions: foliar
[2] = test system: Spodoptera littoralis; test: Antifeedant activity against Spodoptera littoralis assessed as inhibition of diet consumption by leaf disk choice assay relative to control; assay type: functional

| SMILES | inhibition at 20 µg/cm2 [1] [%] | inhibition (INH) [2] [%] |
| --- | --- | --- |
| CC1=C(CO)C(=O)O[C@@H]([C@@H](C)[C@H]2CC[C@H]3[C@@H]4C[C@H]5O[C@]56CC=CC(=O)[C@]6(C)[C@H]4CC[C@]23C)C1 [JABOROSALACTONE A] | 74 |  |
| CC1=C(CO)C(=O)O[C@@H]([C@@H](C)[C@H]2CC[C@H]3[C@@H]4C[C@@H](O)C5=CC=CC(=O)[C@]5(C)[C@H]4CC[C@]23C)C1 [JABOROSALACTONE B] |  | 19 |
| CC1=C(CO)C(=O)O[C@@H]([C@@H](C)[C@H]2CC[C@H]3[C@@H]4C[C@@H](O)[C@@]5(O)CC=CC(=O)[C@]5(C)[C@H]4CC[C@]23C)C1 [JABOROSALACTONE D] |  | -19 |
